Experimental findings from ChEMBL document CHEMBL1201862, “PubChem BioAssay data set” (2004) are described below.

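Results reflect a 48-hour exposure of cells in 96-well plates to compound at five concentrations. GI50 marks 50% less growth.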 The source made the active and inactive calls. Rule as the data show it: active = GI50 up to about 1.1 µM and inactive = higher. Where only a bound is given, the exact number is not on record here.

Some test systems named below: Malme-3M; K562; PC-3; TK-10; COLO 205; EKVX; MDA-N; DU-145; NCI-H522; IGROV-1; NCI/ADR-RES; M14; OVCAR-4; A498; SN12C; SF-295; SK-MEL-5; SK-MEL-2; LOX IMVI; RPMI-8226.
Common to all, as to assay: NCI-60 cell line screen, 48 h

For the compound `Cc1ccsc1C(=O)C(CC(=O)c1cccs1)c1ccsc1` (stereo not given), the GI50 in the assay on Malme-3M was > 100 µM (inactive); in the assay with K562 it was > 100 µM (inactive); with PC-3 it was 45.8 µM (inactive); with TK-10, > 100 µM (inactive); with COLO 205, > 100 µM (inactive); with EKVX, 79.6 µM (inactive). Moreover, the GI50 was 64.6 µM (inactive) in the assay on MDA-N; > 100 µM (inactive) in the assay on DU-145; > 100 µM (inactive) with NCI-H522; > 100 µM (inactive) with IGROV-1; 37.7 µM (inactive) in the assay on NCI/ADR-RES; > 100 µM (inactive) in the assay on M14. In addition, the GI50 in the assay with OVCAR-4 was > 100 µM (inactive); in the assay on A498, > 100 µM (inactive); with SN12C, > 100 µM (inactive); in the assay on SF-295 it was > 100 µM (inactive); in the assay with SK-MEL-5, 28.2 µM (inactive).
In the case of `O=C(Nc1ccc(N2C(=O)CSC2c2cccs2)cc1)c1ccc(N2C(=O)CSC2c2cccs2)cc1` (stereo not given), the GI50 in the assay with Malme-3M was > 100 µM (inactive); in the assay on K562, 56.2 µM (inactive); in the assay on SK-MEL-2 it was > 100 µM (inactive); in the assay with PC-3, > 100 µM (inactive); with TK-10 it was > 100 µM (inactive); with COLO 205 it was > 100 µM (inactive). Further, the GI50 in the assay on EKVX was > 100 µM (inactive); with LOX IMVI it was 88.9 µM (inactive); in the assay on MDA-N, > 100 µM (inactive); in the assay with DU-145 it was > 100 µM (inactive); in the assay with NCI-H522, 36.1 µM (inactive); in the assay on IGROV-1, > 100 µM (inactive). For the same compound, the GI50 in the assay on NCI/ADR-RES was > 100 µM (inactive); in the assay with M14 it was > 100 µM (inactive); with OVCAR-4 it was > 100 µM (inactive); with SN12C, > 100 µM (inactive); in the assay on SF-295 it was 53 µM (inactive); with SK-MEL-5 it was > 100 µM (inactive).
Regarding `CCCCOC(=O)C(=O)C(CCC(=O)c1ccc(C)cc1)C(=O)C=C(C)C` (stereo not given), the GI50 with Malme-3M, in the assay on K562, in the assay on SK-MEL-2, in the assay with RPMI-8226, with PC-3 and in the assay with TK-10 was > 100 µM (inactive) in each case. The GI50 in the assay on EKVX, with LOX IMVI, in the assay with MDA-N, in the assay on NCI-H522, with IGROV-1 and in the assay with NCI/ADR-RES was > 100 µM (inactive) each time. The GI50 in the assay on M14, with OVCAR-4, in the assay on A498, in the assay on SN12C, in the assay with SF-295 and in the assay on SK-MEL-5 was > 100 µM (inactive) throughout.
Turning to `Cc1noc(C)c1/N=N/c1ccc2nonc2c1N`, the GI50 was > 100 µM (inactive) in the assay on Malme-3M; > 10 µM (inactive) in the assay on K562; > 100 µM (inactive) in the assay on SK-MEL-2; > 100 µM (inactive) with RPMI-8226; > 100 µM (inactive) in the assay with PC-3; 58.7 µM (inactive) in the assay with TK-10. For the same compound, the GI50 with COLO 205 was > 100 µM (inactive); with EKVX, 2.66 µM (inactive); with LOX IMVI, > 100 µM (inactive); with MDA-N it was > 100 µM (inactive); in the assay on DU-145, > 100 µM (inactive); in the assay on IGROV-1, > 100 µM (inactive). In addition, the GI50 with NCI/ADR-RES was > 100 µM (inactive); in the assay with M14 it was > 100 µM (inactive); in the assay on OVCAR-4 it was > 100 µM (inactive); in the assay with SN12C, > 100 µM (inactive); with SF-295, 67.3 µM (inactive); in the assay on SK-MEL-5, > 100 µM (inactive).
With `CC(C)N(/C(F)=N\C(=O)Nc1ccccc1C(F)(F)F)C(C)C`, the GI50 in the assay on Malme-3M was 31.6 µM (inactive); in the assay with K562 it was 35.8 µM (inactive); in the assay with SK-MEL-2 it was 22.8 µM (inactive); in the assay with RPMI-8226, 24.4 µM (inactive); in the assay on PC-3 it was 33.3 µM (inactive); with TK-10 it was 52.5 µM (inactive). The GI50 was 44.7 µM (inactive) in the assay on COLO 205; 31.8 µM (inactive) with EKVX; 32 µM (inactive) in the assay with LOX IMVI; 66.5 µM (inactive) with MDA-N; 33.8 µM (inactive) in the assay with IGROV-1; 41.5 µM (inactive) in the assay on NCI/ADR-RES. For the same compound, the GI50 with M14 was 47.6 µM (inactive); in the assay on SN12C it was 37.2 µM (inactive); in the assay on SF-295, 45.6 µM (inactive); with SK-MEL-5, 38.4 µM (inactive).
`OCC1OC(n2nc(-c3ccccc3)nc2-c2cnccn2)C(O)C1O` (stereo not given): the GI50 with K562, in the assay with PC-3, in the assay with TK-10, in the assay with COLO 205, in the assay on EKVX and in the assay with LOX IMVI was > 100 µM (inactive) throughout. Further, the GI50 in the assay on MDA-N, in the assay with DU-145, in the assay on NCI-H522, in the assay with IGROV-1, in the assay on NCI/ADR-RES and with M14 was > 100 µM (inactive) in each case. Moreover, the GI50 in the assay with OVCAR-4, in the assay on SN12C, in the assay on SF-295 and in the assay on SK-MEL-5 was > 100 µM (inactive) throughout.
In the case of `CSC1(Cc2ccccn2)C(=O)Nc2cccc([N+](=O)[O-])c21` (stereo not given), the GI50 in the assay on Malme-3M was 47.9 µM (inactive); in the assay with SK-MEL-2, > 100 µM (inactive); with RPMI-8226, 78 µM (inactive); in the assay on PC-3, > 100 µM (inactive); in the assay on TK-10 it was > 100 µM (inactive); in the assay on COLO 205, > 100 µM (inactive). For the same compound, the GI50 in the assay on EKVX was > 100 µM (inactive); in the assay on LOX IMVI it was 53.5 µM (inactive); in the assay on MDA-N it was > 100 µM (inactive); in the assay with DU-145, > 100 µM (inactive); in the assay with NCI-H522, 61.1 µM (inactive); in the assay with IGROV-1, > 100 µM (inactive). Also, the GI50 in the assay on NCI/ADR-RES, in the assay on M14, in the assay on OVCAR-4, with SN12C, in the assay with SF-295 and with SK-MEL-5 was > 100 µM (inactive) throughout.
In the case of `c1ccc(CSP234N5CCN2CCN3CCN4CC5)c(CSP234N5CCN2CCN3CCN4CC5)c1`, the GI50 in the assay on SK-MEL-2 is > 100 µM (inactive); in the assay with RPMI-8226, 27.7 µM (inactive); in the assay with PC-3 it was > 100 µM (inactive); in the assay with TK-10, > 100 µM (inactive); with COLO 205, 13.6 µM (inactive); in the assay on EKVX, > 100 µM (inactive). For the same compound, the GI50 is > 100 µM (inactive) in the assay with LOX IMVI; 13.4 µM (inactive) with MDA-N; > 100 µM (inactive) with DU-145; 46.6 µM (inactive) in the assay with NCI-H522; > 100 µM (inactive) in the assay with IGROV-1; > 100 µM (inactive) in the assay on NCI/ADR-RES. The GI50 with M14 was 31.5 µM (inactive); in the assay on OVCAR-4 it was > 100 µM (inactive); in the assay on SN12C it was 14.4 µM (inactive); in the assay with SF-295, > 100 µM (inactive); in the assay on SK-MEL-5, 55 µM (inactive).
As to `O=C1CCC2(c3ccccc3)Nc3ccncc3N12` (stereo not given), the GI50 in the assay with Malme-3M, in the assay on K562, in the assay with SK-MEL-2, with PC-3, with TK-10 and with EKVX was > 10 µM (inactive) in each case. For the same compound, the GI50 with LOX IMVI, in the assay on MDA-N, with DU-145, with NCI-H522, with NCI/ADR-RES and with M14 was > 10 µM (inactive) throughout. In addition, the GI50 in the assay on OVCAR-4, with SN12C and with SF-295 was > 10 µM (inactive) in each case.
Regarding `COc1ccc2c(c1)N=C1CSC(c3ccccc3Cl)N1C2` (stereo not given), the GI50 was 23.4 µM (inactive) in the assay on Malme-3M; 7.82 µM (inactive) in the assay on K562; 15.8 µM (inactive) in the assay with SK-MEL-2; 12.2 µM (inactive) in the assay on RPMI-8226; 11.5 µM (inactive) with PC-3; 17.1 µM (inactive) in the assay with TK-10. Moreover, the GI50 in the assay with COLO 205 was 14.9 µM (inactive); with EKVX, 7.98 µM (inactive); with LOX IMVI it was 6.55 µM (inactive); in the assay with MDA-N, 6.17 µM (inactive); in the assay with NCI-H522, 15.1 µM (inactive); with NCI/ADR-RES, 21.6 µM (inactive). The GI50 is 13 µM (inactive) in the assay on M14; 14.1 µM (inactive) in the assay on OVCAR-4; 11.1 µM (inactive) with SN12C; 13.3 µM (inactive) in the assay on SF-295; 17.1 µM (inactive) in the assay on SK-MEL-5.
Take `COc1ccc(OC)c(CC(=O)c2ccc(O)c(C(=O)NCCc3ccc(F)cc3)c2)c1`: the GI50 with Malme-3M was 2.2 µM (inactive); in the assay with K562 it was 3.81 µM (inactive); with SK-MEL-2, 2.96 µM (inactive); in the assay with RPMI-8226, 4.1 µM (inactive); with TK-10 it was 7.23 µM (inactive); in the assay on COLO 205, 16.9 µM (inactive). In addition, the GI50 in the assay with EKVX was 7.13 µM (inactive); with LOX IMVI it was 6.95 µM (inactive); in the assay with MDA-N, 0.498 µM (active); in the assay on DU-145 it was 1.73 µM (inactive); in the assay with NCI-H522, 2.79 µM (inactive); with IGROV-1, 3.27 µM (inactive). Besides, the GI50 in the assay on NCI/ADR-RES is 2.21 µM (inactive); with M14, 2.28 µM (inactive); with OVCAR-4, 4.06 µM (inactive); with A498, 12.2 µM (inactive); in the assay on SF-295, 2.82 µM (inactive); with SK-MEL-5, 1.73 µM (inactive).
`C#CC(O)/C=C/CCCCCCC#CC/C=C\CC#CCCCCCC/C=C/C(O)C#C` (stereo not given): the GI50 in the assay with K562 is 2.05 µM (inactive); in the assay with SK-MEL-2, 2.99 µM (inactive); with PC-3 it was 11.6 µM (inactive); in the assay on TK-10 it was 2.99 µM (inactive); in the assay on COLO 205 it was 2 µM (inactive); in the assay on EKVX, 2.3 µM (inactive). Further, the GI50 is 0.0104 µM (active) in the assay on LOX IMVI; 2.24 µM (inactive) in the assay on MDA-N; 3.01 µM (inactive) in the assay with DU-145; 0.561 µM (active) in the assay on IGROV-1; 2.55 µM (inactive) with NCI/ADR-RES; 1.03 µM (active) in the assay with M14. The GI50 was 2.57 µM (inactive) with OVCAR-4; 3.21 µM (inactive) in the assay on A498; 1.66 µM (inactive) with SN12C; 13.9 µM (inactive) in the assay with SF-295; 1.44 µM (inactive) with SK-MEL-5.
